{"source": "patent US20020137929A1", "about": "“1 - (3-heterocyclylphenyl) isothiourea, -isourea, -guanidine and -amidine herbicidal agents” (Intellectual Property Department, BASF Aktiengesellschaft, priority 1998, published 2002)", "key": {"[1]": {"test_system": "ABUTH (Velvetleaf)", "assay": "Preemergence herbicidal evaluation", "assay_type": "in vivo, Abutilon theophrasti", "details": "rated 4-5 weeks after treatment", "summary_of_the_method": "(§1)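 Scores (0–9) reflect visual comparison with control plants for stand, vigor, malformation, size and chlorosis. Compound was applied to the soil after sowing, before emergence, as an aqueous acetone spray (about 0.0156–0.500 kg/ha), and cups were kept in a greenhouse for 4–5 weeks.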"}, "[2]": {"test_system": "ZEAMX (Corn, Field)", "assay": "Postemergence herbicidal evaluation", "assay_type": "in vivo, Zea mays", "details": "postemergence", "summary_of_the_method": "(§2)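 Young plants, roughly two weeks from seeding, receive the active ingredient as a sprayed dispersion (acetone/water 50/50, 0.5% TWEEN 20) at 40 psi. Doses span about 0.0156 to 0.500 kg/ha. A visual score from 0 to 9 compares treated with control plants four to five weeks on.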"}, "[3]": {"test_system": "GLXMAW (Soybean, Williams)", "assay": "Preemergence herbicidal evaluation", "assay_type": "in vivo, Glycine max, (L.) Merr. cv Williams", "details": "rated 4-5 weeks after treatment", "summary_of_the_method": "as §1"}, "[4]": {"test_system": "SETVI (Foxtail, Green)", "assay": "Postemergence herbicidal evaluation", "assay_type": "in vivo, Setaria viridis", "details": "postemergence", "summary_of_the_method": "as §2"}, "[5]": {"test_system": "CHEAL (Lambsquarters, Common)", "assay": "Preemergence herbicidal evaluation", "assay_type": "in vivo, Chenopodium album", "details": "rated 4-5 weeks after treatment", "summary_of_the_method": "as §1"}, "[6]": {"test_system": "CHEAL (Lambsquarters, Common)", "assay": "Postemergence herbicidal evaluation", "assay_type": "in vivo, Chenopodium album", "details": "postemergence", "summary_of_the_method": "as §2"}, "[7]": {"test_system": "ABUTH (Velvetleaf)", "assay": "Postemergence herbicidal evaluation", "assay_type": "in vivo, Abutilon theophrasti", "details": "postemergence", "summary_of_the_method": "as §2"}, "[8]": {"test_system": "CYPIR (Rice Flatsedge)", "assay": "Postemergence weed control under flooded paddy conditions", "assay_type": "in vivo, Cyperus iria", "details": "postemergence weeds, rated 3 to 4 weeks after treatment", "summary_of_the_method": "(§3)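 Weeds 3 to 5 cm tall and rice seedlings at the 1.5 to 2.5 leaf stage were flooded, with water held 1.5 to 3 cm above the soil. Compounds in 50/50 v/v aqueous/acetone went into the flood water at about 0.0313 to 0.500 kg/ha. Visual 0-9 ratings versus control were made 3 to 4 weeks later.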"}, "[9]": {"test_system": "IPOHE (Morningglory, Ivyleaf)", "assay": "Postemergence herbicidal evaluation", "assay_type": "in vivo, Ipomoea hederacea", "details": "postemergence", "summary_of_the_method": "as §2"}, "[10]": {"test_system": "ECHCG (Barnyardgrass)", "assay": "Postemergence herbicidal evaluation", "assay_type": "in vivo, Echinochloa crus-galli", "details": "postemergence", "summary_of_the_method": "as §2"}, "[11]": {"test_system": "ORYSAT (Rice, Tebonnet)", "assay": "Postemergence herbicidal evaluation", "assay_type": "in vivo, Oryza sativa, (L.) Tebonnet", "details": "postemergence", "summary_of_the_method": "as §2"}, "[12]": {"test_system": "ECHCG (Barnyardgrass)", "assay": "Preemergence herbicidal evaluation", "assay_type": "in vivo, Echinochloa crus-galli", "details": "rated 4-5 weeks after treatment", "summary_of_the_method": "as §1"}, "[13]": {"test_system": "TRZAWR (Wheat, Winter, cv Riband)", "assay": "Preemergence herbicidal evaluation", "assay_type": "in vivo, Triticum aestivum", "details": "rated 4-5 weeks after treatment", "summary_of_the_method": "as §1"}, "[14]": {"test_system": "ZEAMX (Corn, Field)", "assay": "Preemergence herbicidal evaluation", "assay_type": "in vivo, Zea mays", "details": "rated 4-5 weeks after treatment", "summary_of_the_method": "as §1"}, "[15]": {"test_system": "IPOHE (Morningglory, Ivyleaf)", "assay": "Preemergence herbicidal evaluation", "assay_type": "in vivo, Ipomoea hederacea", "details": "rated 4-5 weeks after treatment", "summary_of_the_method": "as §1"}, "[16]": {"test_system": "CASOB (Sicklepod)", "assay": "Preemergence herbicidal evaluation", "assay_type": "in vivo, Cassia obtusifolia", "details": "rated 4-5 weeks after treatment", "summary_of_the_method": "as §1"}, "[17]": {"test_system": "CYPSE (Flatsedge)", "assay": "Postemergence weed control under flooded paddy conditions", "assay_type": "in vivo, Cyperus serotinus", "details": "postemergence weeds, rated 3 to 4 weeks after treatment", "summary_of_the_method": "as §3"}}, "data": [{"smiles": "CCOC(=O)CN1C(=O)C(CC(=O)Nc2ccccc2)SC1=Nc1cc(-n2c(=O)cc(C(F)(F)F)n(C)c2=O)c(F)cc1Cl", "note": "(stereo not drawn) [Compound 68, Ethyl 2-{{2-chloro-5-[3,6-dihydro-3-methyl-2,6-dioxo-4-(trifluoromethyl)-1(2H)-pyrimidinyl]-4-fluorophenyl}imino}-4-oxo-5-[(phenylcarbamoyl)-methyl]-3-thiazolidineacetate]", "values": [{"measurement": "Preemergence herbicidal rating ABUTH", "setting": "[1]; rate 0.0156 kg/ha", "result": 0.0}, {"measurement": "Preemergence herbicidal rating ABUTH", "setting": "[1]; rate 0.0313 kg/ha", "result": 1.0}, {"measurement": "Preemergence herbicidal rating ABUTH", "setting": "[1]; rate 0.0625 kg/ha", "result": 1.0}, {"measurement": "Preemergence herbicidal rating ABUTH", "setting": "[1]; rate 0.1250 kg/ha", "result": 5.0}, {"measurement": "Preemergence herbicidal rating ABUTH", "setting": "[1]; rate 0.2500 kg/ha", "result": 9.0}, {"measurement": "ZEAMX herbicidal rating", "setting": "[2]; rate 0.0158 kg/ha", "result": 5.0}, {"measurement": "ZEAMX herbicidal rating", "setting": "[2]; rate 0.0315 kg/ha", "result": 5.0}, {"measurement": "ZEAMX herbicidal rating", "setting": "[2]; rate 0.0630 kg/ha", "result": 5.5}, {"measurement": "Preemergence herbicidal rating GLXMAW", "setting": "[3]; rate 0.0156 kg/ha", "result": 0.0}, {"measurement": "Preemergence herbicidal rating GLXMAW", "setting": "[3]; rate 0.0313 kg/ha", "result": 0.0}, {"measurement": "Preemergence herbicidal rating GLXMAW", "setting": "[3]; rate 0.0625 kg/ha", "result": 0.0}, {"measurement": "Preemergence herbicidal rating GLXMAW", "setting": "[3]; rate 0.1250 kg/ha", "result": 1.0}, {"measurement": "Preemergence herbicidal rating GLXMAW", "setting": "[3]; rate 0.2500 kg/ha", "result": 1.0}, {"measurement": "SETVI herbicidal rating", "setting": "[4]; rate 0.0158 kg/ha", "result": 2.0}, {"measurement": "SETVI herbicidal rating", "setting": "[4]; rate 0.0315 kg/ha", "result": 6.0}, {"measurement": "SETVI herbicidal rating", "setting": "[4]; rate 0.0630 kg/ha", "result": 6.0}, {"measurement": "Preemergence herbicidal rating CHEAL", "setting": "[5]; rate 0.0156 kg/ha", "result": 2.0}, {"measurement": "Preemergence herbicidal rating CHEAL", "setting": "[5]; rate 0.0313 kg/ha", "result": 9.0}, {"measurement": "Preemergence herbicidal rating CHEAL", "setting": "[5]; rate 0.0625 kg/ha", "result": 9.0}, {"measurement": "Preemergence herbicidal rating CHEAL", "setting": "[5]; rate 0.1250 kg/ha", "result": 9.0}, {"measurement": "Preemergence herbicidal rating CHEAL", "setting": "[5]; rate 0.2500 kg/ha", "result": 9.0}, {"measurement": "CHEAL herbicidal rating", "setting": "[6]; rate 0.0158 kg/ha", "result": 4.0}, {"measurement": "CHEAL herbicidal rating", "setting": "[6]; rate 0.0315 kg/ha", "result": 7.0}, {"measurement": "CHEAL herbicidal rating", "setting": "[6]; rate 0.0630 kg/ha", "result": 7.0}, {"measurement": "ABUTH herbicidal rating", "setting": "[7]; rate 0.0158 kg/ha", "result": 7.0}, {"measurement": "ABUTH herbicidal rating", "setting": "[7]; rate 0.0315 kg/ha", "result": 9.0}, {"measurement": "ABUTH herbicidal rating", "setting": "[7]; rate 0.0630 kg/ha", "result": 7.0}, {"measurement": "Herbicidal rating CYPIR", "setting": "[8]; Rate 0.0313 kg/ha", "result": 0.0}, {"measurement": "Herbicidal rating CYPIR", "setting": "[8]; Rate 0.0625 kg/ha", "result": 0.0}, {"measurement": "Herbicidal rating CYPIR", "setting": "[8]; Rate 0.1250 kg/ha", "result": 5.0}, {"measurement": "Herbicidal rating CYPIR", "setting": "[8]; Rate 0.2500 kg/ha", "result": 8.0}, {"measurement": "IPOHE herbicidal rating", "setting": "[9]; rate 0.0158 kg/ha", "result": 9.0}, {"measurement": "IPOHE herbicidal rating", "setting": "[9]; rate 0.0315 kg/ha", "result": 9.0}, {"measurement": "IPOHE herbicidal rating", "setting": "[9]; rate 0.0630 kg/ha", "result": 9.0}, {"measurement": "ECHCG herbicidal rating", "setting": "[10]; rate 0.0158 kg/ha", "result": 2.0}, {"measurement": "ECHCG herbicidal rating", "setting": "[10]; rate 0.0315 kg/ha", "result": 2.0}, {"measurement": "ECHCG herbicidal rating", "setting": "[10]; rate 0.0630 kg/ha", "result": 5.0}, {"measurement": "ORYSAT herbicidal rating", "setting": "[11]; rate 0.0158 kg/ha", "result": 3.0}, {"measurement": "ORYSAT herbicidal rating", "setting": "[11]; rate 0.0315 kg/ha", "result": 3.5}, {"measurement": "ORYSAT herbicidal rating", "setting": "[11]; rate 0.0630 kg/ha", "result": 4.0}, {"measurement": "Preemergence herbicidal rating ECHCG", "setting": "[12]; rate 0.0156 kg/ha", "result": 0.0}, {"measurement": "Preemergence herbicidal rating ECHCG", "setting": "[12]; rate 0.0313 kg/ha", "result": 0.0}, {"measurement": "Preemergence herbicidal rating ECHCG", "setting": "[12]; rate 0.0625 kg/ha", "result": 0.0}, {"measurement": "Preemergence herbicidal rating ECHCG", "setting": "[12]; rate 0.1250 kg/ha", "result": 0.0}, {"measurement": "Preemergence herbicidal rating ECHCG", "setting": "[12]; rate 0.2500 kg/ha", "result": 1.0}, {"measurement": "Preemergence herbicidal rating TRZAWR", "setting": "[13]; rate 0.0156 kg/ha", "result": 0.0}, {"measurement": "Preemergence herbicidal rating TRZAWR", "setting": "[13]; rate 0.0313 kg/ha", "result": 0.0}, {"measurement": "Preemergence herbicidal rating TRZAWR", "setting": "[13]; rate 0.0625 kg/ha", "result": 0.0}, {"measurement": "Preemergence herbicidal rating TRZAWR", "setting": "[13]; rate 0.1250 kg/ha", "result": 0.0}, {"measurement": "Preemergence herbicidal rating TRZAWR", "setting": "[13]; rate 0.2500 kg/ha", "result": 1.0}, {"measurement": "Preemergence herbicidal rating ZEAMX", "setting": "[14]; rate 0.0156 kg/ha", "result": 0.0}, {"measurement": "Preemergence herbicidal rating ZEAMX", "setting": "[14]; rate 0.0313 kg/ha", "result": 0.0}, {"measurement": "Preemergence herbicidal rating ZEAMX", "setting": "[14]; rate 0.0625 kg/ha", "result": 0.0}, {"measurement": "Preemergence herbicidal rating ZEAMX", "setting": "[14]; rate 0.1250 kg/ha", "result": 1.0}, {"measurement": "Preemergence herbicidal rating ZEAMX", "setting": "[14]; rate 0.2500 kg/ha", "result": 1.0}, {"measurement": "Preemergence herbicidal rating IPOHE", "setting": "[15]; rate 0.0156 kg/ha", "result": 0.0}, {"measurement": "Preemergence herbicidal rating IPOHE", "setting": "[15]; rate 0.0313 kg/ha", "result": 0.0}, {"measurement": "Preemergence herbicidal rating IPOHE", "setting": "[15]; rate 0.0625 kg/ha", "result": 0.0}, {"measurement": "Preemergence herbicidal rating IPOHE", "setting": "[15]; rate 0.1250 kg/ha", "result": 0.0}, {"measurement": "Preemergence herbicidal rating IPOHE", "setting": "[15]; rate 0.2500 kg/ha", "result": 6.0}, {"measurement": "Preemergence herbicidal rating CASOB", "setting": "[16]; rate 0.0156 kg/ha", "result": 0.0}, {"measurement": "Preemergence herbicidal rating CASOB", "setting": "[16]; rate 0.0313 kg/ha", "result": 0.0}, {"measurement": "Preemergence herbicidal rating CASOB", "setting": "[16]; rate 0.0625 kg/ha", "result": 0.0}, {"measurement": "Preemergence herbicidal rating CASOB", "setting": "[16]; rate 0.1250 kg/ha", "result": 0.0}, {"measurement": "Preemergence herbicidal rating CASOB", "setting": "[16]; rate 0.2500 kg/ha", "result": 1.0}, {"measurement": "Herbicidal rating CYPSE", "setting": "[17]; Rate 0.0313 kg/ha", "result": 0.0}, {"measurement": "Herbicidal rating CYPSE", "setting": "[17]; Rate 0.0625 kg/ha", "result": 0.0}, {"measurement": "Herbicidal rating CYPSE", "setting": "[17]; Rate 0.1250 kg/ha", "result": 0.0}, {"measurement": "Herbicidal rating CYPSE", "setting": "[17]; Rate 0.2500 kg/ha", "result": 0.0}]}]}
